Results as given in patent publication US20070049564A1 (Wyeth, priority 2005, published 2007).
Values after ≈ are worked out from the molar mass of the structure shown. Like-named read-outs stand apart in the source and are kept apart here.

What was measured:
S. aureus GC 6466 = experiment: MIC, broth microdilution; details: for MIC: Staphylococcus aureus
E. coli GC 2203 = experiment: MIC, broth microdilution; details: Escherichia coli, GC2203, read-out: MINIMAL INHIBITORY CONCENTRATION MIC, pre-incubated in Water
E. coli GC 2234 = experiment: MIC, broth microdilution; details: Escherichia coli, GC2234, read-out: MINIMAL INHIBITORY CONCENTRATION MIC, pre-incubated in Water
E. coli GC 2271 = experiment: MIC, broth microdilution; details: Escherichia coli, GC2271, read-out: MINIMAL INHIBITORY CONCENTRATION MIC, pre-incubated in Water
E. coli GC 2233 = experiment: MIC, broth microdilution; details: Escherichia coli, GC2233, read-out: MINIMAL INHIBITORY CONCENTRATION MIC, pre-incubated in Water
E. faecium GC 4556 = experiment: MIC, broth microdilution; details: for MIC: Enterococcus faecium
S. pyogenes GC 4563 = experiment: MIC, broth microdilution; details: for MIC: Streptococcus pyogenes
Staph. = experiment: Range of MIC for Staph. strains, including MRSA; details: Staphylococcus aureus
E. coli GC 2231 = experiment: MIC, broth microdilution; details: Escherichia coli, GC2231, read-out: MINIMAL INHIBITORY CONCENTRATION MIC, pre-incubated in Water
S. aureus GC 6335 = experiment: MIC, broth microdilution; details: for MIC: Staphylococcus aureus
E. coli GC 2232 = experiment: MIC, broth microdilution; details: Escherichia coli, GC2232, read-out: MINIMAL INHIBITORY CONCENTRATION MIC, pre-incubated in Water
E. coli GC 2236 = experiment: MIC, broth microdilution; details: Escherichia coli, GC2236, read-out: MINIMAL INHIBITORY CONCENTRATION MIC, pre-incubated in Water
E. coli = experiment: Range of MIC for E. coli strains; details: Escherichia coli
E. coli GC 2270 = experiment: MIC, broth microdilution; details: Escherichia coli, GC2270, read-out: MINIMAL INHIBITORY CONCENTRATION MIC, pre-incubated in Water
S. aureus GC 6469 = experiment: MIC, broth microdilution; details: for MIC: Staphylococcus aureus
S. aureus GC 2216 = experiment: MIC, broth microdilution; details: Staphylococcus aureus
E. faecium GC 2243 = experiment: MIC, broth microdilution; details: for MIC: Enterococcus faecium
E. faecalis GC 2265 = experiment: MIC, broth microdilution; details: for MIC: Enterococcus faecalis
P. aeruginosa GC 2214 = experiment: MIC, broth microdilution; details: Pseudomonas aeruginosa
E. coli GC 3226 = experiment: MIC, broth microdilution; details: Escherichia coli, GC3226, read-out: MINIMAL INHIBITORY CONCENTRATION MIC, pre-incubated in Water

MIC (S. aureus GC 6466; GC6466, read-out: MINIMAL INHIBITORY CONCENTRATION MIC, pre-incubated in Mouse Serum): 2 µg/mL (≈ 2.64 µM) | MIC (S. aureus GC 6466; GC6466, read-out: MINIMAL INHIBITORY CONCENTRATION MIC, pre-incubated in Water): 4 µg/mL (≈ 5.28 µM) | MINIMAL INHIBITORY CONCENTRATION MIC (S. aureus GC 6466; pre-incubated in Mouse Serum): 4 UG/ML | MIC (E. coli GC 2203): > 64 µg/mL | MIC (E. coli GC 2234): > 64 µg/mL | MIC (E. coli GC 2271): > 64 µg/mL | MIC (E. coli GC 2233): > 64 µg/mL | MIC (E. faecium GC 4556; GC4556, read-out: MINIMAL INHIBITORY CONCENTRATION MIC, pre-incubated in Mouse Serum): 2 µg/mL (≈ 2.64 µM) | MIC (E. faecium GC 4556; GC4556, read-out: MINIMAL INHIBITORY CONCENTRATION MIC, pre-incubated in Water): 8 µg/mL (≈ 10.6 µM) | MINIMAL INHIBITORY CONCENTRATION MIC (E. faecium GC 4556; pre-incubated in Mouse Serum): 4 UG/ML | MIC (S. pyogenes GC 4563; GC4563, read-out: MINIMAL INHIBITORY CONCENTRATION MIC, pre-incubated in Mouse Serum): 2 µg/mL (≈ 2.64 µM) | MIC (S. pyogenes GC 4563; GC4563, read-out: MINIMAL INHIBITORY CONCENTRATION MIC, pre-incubated in Water): 4 µg/mL (≈ 5.28 µM) | MINIMAL INHIBITORY CONCENTRATION MIC (S. pyogenes GC 4563; pre-incubated in Mouse Serum): 4 UG/ML | MIC (Staph.; MRSA, read-out: Range of MIC, Staph (Mouse Serum)): 2 to 4 µg/mL (≈ 2.64 to 5.28 µM) | MIC (Staph.; MRSA, read-out: Range of MIC, Staph (Water)): 4 to 8 µg/mL (≈ 5.28 to 10.6 µM) | MIC (Staph.; read-out: Minimum inhibitory concentration (MIC), Staph (Human Serum)): 2 to 4 µg/mL (≈ 2.64 to 5.28 µM) | MIC (Staph.; read-out: Minimum inhibitory concentration (MIC), Staph (Water)): 4 to 8 µg/mL (≈ 5.28 to 10.6 µM) | MIC (E. coli GC 2231): > 64 µg/mL | MIC (S. aureus GC 6335; GC6335, read-out: MINIMAL INHIBITORY CONCENTRATION MIC, pre-incubated in Mouse Serum): 2 µg/mL (≈ 2.64 µM) | MIC (S. aureus GC 6335; GC6335, read-out: MINIMAL INHIBITORY CONCENTRATION MIC, pre-incubated in Water): 4 µg/mL (≈ 5.28 µM) | MINIMAL INHIBITORY CONCENTRATION MIC (S. aureus GC 6335; pre-incubated in Mouse Serum): 4 UG/ML | MIC (E. coli GC 2232): > 64 µg/mL | MIC (E. coli GC 2236): > 64 µg/mL | MIC (E. coli; 20 h, read-out: Range of MIC, E. coli (Mouse Serum)): 4 to 16 µg/mL (≈ 5.28 to 21.1 µM) | MIC (E. coli; read-out: Minimum inhibitory concentration (MIC), E. coli (Human Serum)): > 64 µg/mL | MIC (E. coli; read-out: Minimum inhibitory concentration (MIC), E. coli (water)): > 64 µg/mL | MIC (E. coli; read-out: Range of MIC, E. coli (Water)): > 64 µg/mL | MIC (E. coli GC 2270): > 64 µg/mL | MIC (S. aureus GC 6469; GC6469, read-out: MINIMAL INHIBITORY CONCENTRATION MIC, pre-incubated in Mouse Serum): 2 µg/mL (≈ 2.64 µM) | MIC (S. aureus GC 6469; GC6469, read-out: MINIMAL INHIBITORY CONCENTRATION MIC, pre-incubated in Water): 4 µg/mL (≈ 5.28 µM) | MINIMAL INHIBITORY CONCENTRATION MIC (S. aureus GC 6469; pre-incubated in Mouse Serum): 4 UG/ML | MIC (S. aureus GC 2216; GC2216, read-out: MINIMAL INHIBITORY CONCENTRATION MIC, pre-incubated in Mouse Serum): 2 µg/mL (≈ 2.64 µM) | MIC (S. aureus GC 2216; GC2216, read-out: MINIMAL INHIBITORY CONCENTRATION MIC, pre-incubated in Water): 4 µg/mL (≈ 5.28 µM) | MIC (E. faecium GC 2243; GC2243, read-out: MINIMAL INHIBITORY CONCENTRATION MIC, pre-incubated in Mouse Serum): 2 µg/mL (≈ 2.64 µM) | MIC (E. faecium GC 2243; GC2243, read-out: MINIMAL INHIBITORY CONCENTRATION MIC, pre-incubated in Water): 4 µg/mL (≈ 5.28 µM) | MINIMAL INHIBITORY CONCENTRATION MIC (E. faecium GC 2243; pre-incubated in Mouse Serum): 4 UG/ML | MIC (E. faecalis GC 2265; GC2265, read-out: MINIMAL INHIBITORY CONCENTRATION MIC, pre-incubated in Mouse Serum): 2 µg/mL (≈ 2.64 µM) | MIC (E. faecalis GC 2265; GC2265, read-out: MINIMAL INHIBITORY CONCENTRATION MIC, pre-incubated in Water): 8 µg/mL (≈ 10.6 µM) | MINIMAL INHIBITORY CONCENTRATION MIC (E. faecalis GC 2265; pre-incubated in Mouse Serum): 4 UG/ML | MIC (P. aeruginosa GC 2214; GC2214, read-out: MINIMAL INHIBITORY CONCENTRATION MIC, pre-incubated in Mouse Serum): > 64 µg/mL | MIC (P. aeruginosa GC 2214; GC2214, read-out: MINIMAL INHIBITORY CONCENTRATION MIC, pre-incubated in Water): > 64 µg/mL | MIC (E. coli GC 3226): > 64 µg/mL
Compound: CN(C)c1cc(NC(=O)CN(C(=O)OCOC(=O)CC(C)(C)C)C(C)(C)C)c(O)c2c1C[C@H]1C[C@H]3[C@H](N(C)C)C(O)=C(C(N)=O)C(=O)[C@@]3(O)C(O)=C1C2=O [Example 42, ({[(2-{[(5aR,6aS,7S,10aS)-9-(aminocarbonyl)-4,7-bis(dimethylamino)-1,8,10a,11-tetrahydroxy-10,12-dioxo-5,5a,6,6a,7,10,10a,12-octahydrotetracen-2-yl]amino}-2-oxoethyl)(tert-butyl)amino]carbonyl}oxy)methyl 3,3-dimethylbutanoate]
